Here are results for 16 compounds from patent US11524960B2, “Heterobicyclic inhibitors of MAT2A and methods of use for treating cancer” (AGIOS PHARMACEUTICALS, INC., priority 2018, dated 2022).

Test [1] relates to SAM in HCT116 human colon carcinoma cell line engineered to delete the MTAP gene (MTAP −/−). Put plainly: Cellular assay of target engagement (SAM) by LC-MS/MS. It is filed as cell-based. The following applies: Homo sapiens, HCT-116, 72 h, IC50 score, read-out: Cell 72 h SAM Inhibition (MTAP −/−; Example 276). As for the experimental part: Measurement of MAT2A activity in cells was made by direct quantitation of the abundance of the product of its enzymatic activity, SAM. Cancer cells were treated with candidate MAT2A inhibitors for a suitable incubation period, and the cells were then lysed using a reagent which quenched any further enzyme activity. Soluble metabolites including SAM were collected and SAM itself was directly measured from the lysate using quantitative LC-MS/MS.
A typical assay was performed using an HCT116 human colon carcinoma cell line which was genetically engineered to delete the MTAP gene (commercially available from Horizon Discovery). This cell line was utilized because it was determined that loss of the MTAP gene predicts sensitivity to MAT2A inhibitors. Cells were plated in 96-well dishes at appropriate cell density. Following 24 hours, cells were then treated with the candidate MAT2A inhibitor. Prior to addition to cells, the compound was first serially diluted in 100% DMSO, typically as a 3-fold serial dilution starting at 500× top dose with 10 dose points including DMSO only control. Compound was then transferred to a working stock plate in cell culture media by adding 5 μl of compound in DMSO to 495 μl of cell culture media. This working stock was then added to cells via a further 5-fold dilution, by adding 25 μl of working stock to 100 μl of cells in culture media. Following compound addition, cells were incubated at 37° C./5% CO2 for 72 hrs.
To quantitate SAM levels following compound treatment, cells were gently washed once in Ammonium Carbonate buffer (75 mM at pH 7.4), placed on dry ice, and lysed with metabolite extraction buffer (80% cold methanol and 20% water (v/v) with acetic acid at 1 M final concentration with 200 ng/mL deuterated d3-SAM as internal control). Following centrifugation at 4° C. at 3,200 rpm for 30 minutes, the supernatant was collected and stored at −80° C. until analysis by Liquid Chromatography with tandem Mass Spectrometry (LC-MS/MS). LC-MS/MS analysis was performed using an API6500 Mass Spectrometer (Sciex, Framingham, Mass., USA) operating in positive ion spray mode and equipped with a Waters UPLC Acquity (Waters, Milford, Mass., USA) BEH Amide column. Multiple Reaction Monitoring data was acquired for SAM and the d3-SAM standard, using a mass transition pair at m/z 399.2→250.1 and 402.2→250.1, respectively. In a typical LC-MS/MS analysis, the initial flow rate was 0.5 ml/min of 25% mobile phase A (acetonitrile and water at 5:95 (v/v) with 1% formic acid and 10 mM ammonium acetate) and 75% mobile phase B (acetonitrile and water at 95:5 (v/v) with 1% formic acid and 10 mM ammonium acetate), 0.2-0.5 minutes with 75%-35% mobile phase B, 25%-65% mobile phase A, at 0.5 min 65% mobile phase A and 35% mobile phase B, 1.0-1.1 minutes with 35%-75% mobile phase B, 65%-25% mobile phase A, at 1.1 min 25% mobile phase A and 75% mobile phase B with a total run time of 1.5 minutes.

The next test deals with T1, MAT2A homodimer (Homo sapiens, UniProt P31153).
T1 construct: inferred from Ni sepharose purification and imidazole elution; made in house; host or cells: Sf9 insect cells, recombinant baculovirus (Bac to Bac, pFASTBAC1)
The experiment in a line: Biochemical assay: inhibition of MAT2A (phosphate release, PiColorLock Gold). The conditions noted are these: MAT2A IC50 score; read-out: Enzyme Inhibition (Example 275). In short, it runs like this: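 Baculovirus/Sf9-expressed, Ni-purified MAT2A at 4 µg/mL was preincubated with compound for 60 min at 25 °C in 50 mM Tris pH 8.0, 50 mM KCl, 15 mM MgCl2, 0.3 mM EDTA, 0.005% BSA. Substrate mix (500 μM ATP, 400 μM L-methionine) was added and the reaction ran 60 min at 25 °C. Phosphate released stoichiometrically with SAM was measured colorimetrically against a phosphate standard curve.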

The next test concerns HCT116 MTAP+/+. Put plainly: Inhibition of cellular proliferation (Cell Titer Glo), HCT116 MTAP+/+. It is filed as cell-based, human. The conditions noted are these: Homo sapiens, HCT-116, 96 h, 4 days, IC50 score, read-out: 4 Day Relative Growth Inhibition (MTAP +/+; Example 277). As to the method:
(§1) Test compound impact on cancer cell growth was assessed by treating cancer cells with compound for 4 days and then measuring proliferation using an ATP-based cell proliferation readout (Cell Titer Glo, Promega Corporation).
(§2) In a typical assay an isogenic pair of HCT116 human colon carcinoma cell lines which vary only in MTAP deletion status (HCT116 MTAP+/+ and HCT116 MTAP−/−) were plated in 96-well dishes at appropriate cell density. Following 24 hours, cells were then treated with the candidate MAT2A inhibitor. Prior to addition to cells, the compound was first serially diluted in 100% DMSO, typically as a 3-fold serial dilution starting at 500× top dose with 10 dose points including DMSO only control. Compound was then transferred to a working stock plate in cell culture media by adding 5 μl of compound in DMSO to 495 μl of cell culture media. This working stock was then added to cells via a further 5-fold dilution, by adding 25 μl of working stock to 100 μl of cells in culture media. Following compound addition, cells were incubated at 37° C./5% C02 for 4 days.
(§3) To measure inhibition of cellular proliferation, cells were allowed to equilibrate to room temperature for 30 minutes, and were then treated with 125 μl of Cell Titer Glo reagent. The plate was then covered with aluminum foil and shaken for 15 minutes to ensure complete mixing and full cell lysis. Luminescent signal was then measured using a plate-based luminometer Veritas version 1.9.2 using ATP standard curve to confirm assay reproducibility from run to run. This luminescence measure was converted to a proliferation index by subtracting from each data point the ATP luminescence signal measured from a bank (no cells) well and dividing by the ATP luminescence signal measured in 0.2% DMSO control well adjusted for signal in blank well. Compound activity was then represented as a percentage change in proliferation relative to a within-plate DMSO control against log10 of compound concentration in molar (M) units.
In general terms: ATP-based viability assays read luminescence as a measure of living cells.

A further test concerns HCT116 MTAP−/−. The experiment in a line: Inhibition of cellular proliferation (Cell Titer Glo), HCT116 MTAP−/−. It is filed as cell-based, human. The conditions noted are these: Homo sapiens, HCT-116, 96 h, 4 days, IC50 score, read-out: 4 Day Relative Growth Inhibition (MTAP −/−; Example 277). As for the experimental part:
as §1, §2, §3

A value given as a limit tells only on which side of the number the result lay.

T1 sequence (P31153 whole entry): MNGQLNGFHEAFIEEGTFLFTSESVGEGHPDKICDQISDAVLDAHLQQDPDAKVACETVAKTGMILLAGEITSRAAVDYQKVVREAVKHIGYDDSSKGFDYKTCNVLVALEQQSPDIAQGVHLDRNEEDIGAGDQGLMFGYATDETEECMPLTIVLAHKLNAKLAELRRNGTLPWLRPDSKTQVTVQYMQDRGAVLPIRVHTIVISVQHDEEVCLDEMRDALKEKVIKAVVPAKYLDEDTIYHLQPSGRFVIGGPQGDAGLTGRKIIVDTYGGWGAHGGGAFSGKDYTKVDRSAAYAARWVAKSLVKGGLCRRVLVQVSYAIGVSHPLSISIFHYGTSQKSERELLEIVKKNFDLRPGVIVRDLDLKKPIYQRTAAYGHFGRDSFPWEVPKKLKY

In the case of `CCn1cc2cc(-n3cc4cnc(NCC(F)(F)F)nc4c(-c4ccc(OC(F)F)cc4)c3=O)ccc2n1` [Example 152, 8-(4-(difluoromethoxy)phenyl)-6-(2-ethyl-2H-indazol-5-yl)-2-((2,2,2-trifluoroethyl)amino)pyrido[4,3-d]pyrimidin-7(6H)-one], the IC50 in test [1] was below 100 nM; on MAT2A homodimer, below 100 nM; with HCT116 MTAP+/+, above 10000 nM; in the test with HCT116 MTAP−/− it was below 100 nM.
As to `Cc1ccc(-c2c(=O)n(-c3ccc4nn(C)cc4c3)cc3ccc(OCC(F)(F)F)nc23)cn1` [Example 130-A], the IC50 is below 100 nM in test [1], below 100 nM on MAT2A homodimer, 100 to 10000 nM with HCT116 MTAP+/+ and below 100 nM in the test with HCT116 MTAP−/−.
As to `COc1ccc(-n2cc3cnc(NCC(F)(F)F)nc3c(-c3ccc(OC(F)F)cc3)c2=O)cc1` [Example 195, 8-(4-(difluoromethoxy)phenyl)-6-(4-methoxyphenyl)-2-((2,2,2-trifluoroethyl)amino)pyrido[4,3-d]pyrimidin-7(6H)-one], the IC50 in test [1] was below 100 nM; at MAT2A homodimer, below 100 nM; in the test on HCT116 MTAP+/+, above 10000 nM; with HCT116 MTAP−/−, below 100 nM.
For `COc1ccc(-n2cc3ccc(NCC(F)(F)F)nc3c(-c3ccc(OC(F)F)cc3)c2=O)cc1` [Example 241, 8-(4-(difluoromethoxy)phenyl)-6-(4-methoxyphenyl)-2-(2,2,2-trifluoroethylamino)-1,6-naphthyridin-7(6H)-one], the IC50 in test [1] was below 100 nM; on MAT2A homodimer it was below 100 nM; in the test with HCT116 MTAP+/+, 100 to 10000 nM; in the test with HCT116 MTAP−/−, below 100 nM.
With `Cn1cc2cc(-n3cc4ccc(OC5CC5)nc4c(-c4ccc(Cl)cc4)c3=O)ccc2n1` [Example 210, 8-(4-chlorophenyl)-2-cyclopropoxy-6-(2-methyl-2H-indazol-5-yl)-1,6-naphthyridin-7(6H)-one], the IC50 in test [1] is below 100 nM; at MAT2A homodimer it was below 100 nM; with HCT116 MTAP+/+, above 10000 nM; in the test on HCT116 MTAP−/−, below 100 nM.
As to `Cn1cc2cc(-n3cc4ccc(SCC(F)(F)F)nc4c(-c4ccc(Cl)cc4)c3=O)ccc2n1` [Example 209, 8-(4-chlorophenyl)-6-(2-methyl-2H-indazol-5-yl)-2-((2,2,2-trifluoroethyl)thio)-1,6-naphthyridin-7(6H)-one], the IC50 in test [1] is below 100 nM; at MAT2A homodimer, below 100 nM; with HCT116 MTAP+/+ it was above 10000 nM; in the test with HCT116 MTAP−/− it was below 100 nM.
As for `CCOc1ccc2cn(-c3ccc4nn(C)cc4c3)c(=O)c(-c3ccc(OC(F)(F)F)cc3)c2n1` [Example 217, 2-ethoxy-6-(2-methyl-2H-indazol-5-yl)-8-(4-(trifluoromethoxy)phenyl)-1,6-naphthyridin-7(6H)-one], the IC50 in test [1] is below 100 nM; on MAT2A homodimer, below 100 nM; in the test with HCT116 MTAP+/+, above 10000 nM; with HCT116 MTAP−/−, 100 to 10000 nM.
As for `CCOc1cnc2cn(-c3ccc4nn(C)cc4c3)c(=O)c(-c3ccc(OC(F)(F)F)nc3)c2n1` [Example 148-A], the IC50 in test [1] is below 100 nM; on MAT2A homodimer it was below 100 nM; in the test with HCT116 MTAP+/+, 100 to 10000 nM; in the test with HCT116 MTAP−/−, 100 to 10000 nM.
For the compound `CCSc1ccc2cn(-c3ccc4nn(C)cc4c3)c(=O)c(-c3ccc(Cl)cc3)c2n1` [Example 259, 8-(4-chlorophenyl)-2-(ethylthio)-6-(2-methyl-2H-indazol-5-yl)-1,6-naphthyridin-7(6H)-one], the IC50 in test [1] is below 100 nM; on MAT2A homodimer it was below 100 nM; with HCT116 MTAP+/+, above 10000 nM; in the test on HCT116 MTAP−/−, below 100 nM.
On to `O=c1c(-c2ccc(Cl)cc2)c2nc(NCC(F)(F)F)ncc2cn1-c1ccc2ncn(C3CC3)c2c1` [Example 127, 8-(4-chlorophenyl)-6-(1-cyclopropyl-1H-benzo[d]imidazol-6-yl)-2-(2,2,2-trifluoroethylamino)pyrido[4,3-d]pyrimidin-7(6H)-one], for which the IC50 in test [1] is below 100 nM; at MAT2A homodimer it was below 100 nM; in the test on HCT116 MTAP+/+, above 10000 nM; in the test on HCT116 MTAP−/− it was below 100 nM.
For `CCOc1cnc2cn(-c3ccc(OC)cc3)c(=O)c(-c3ccc(OC(F)F)cc3)c2n1` [Example 150-A], the IC50 in test [1] is below 100 nM; at MAT2A homodimer, below 100 nM; with HCT116 MTAP+/+, 100 to 10000 nM; with HCT116 MTAP−/−, 100 to 10000 nM.
For the compound `CCOc1ncc2cn(-c3ccc4nn(C)cc4c3)c(=O)c(-c3ccc(OC(F)F)cc3)c2n1` [Example 272, 8-(4-(difluoromethoxy)phenyl)-2-ethoxy-6-(2-methyl-2H-indazol-5-yl)pyrido[4,3-d]pyrimidin-7(6H)-one], the IC50 in test [1] was below 100 nM; on MAT2A homodimer it was below 100 nM; with HCT116 MTAP+/+, above 10000 nM; in the test with HCT116 MTAP−/−, 100 to 10000 nM.
Turning to `Cn1cc2cc(-n3cc4ccc(OCC(F)F)nc4c(-c4ccc(OC(F)(F)F)nc4)c3=O)ccc2n1` [Example 125-A], the IC50 in test [1] is below 100 nM; at MAT2A homodimer, below 100 nM; in the test on HCT116 MTAP+/+, 100 to 10000 nM; in the test on HCT116 MTAP−/− it was below 100 nM.
Take `CCOc1ccc2cn(-c3ccc4nn(CCS(C)(=O)=O)cc4c3)c(=O)c(-c3ccc(OC(F)F)cc3)c2n1` [Example 108-A]: the IC50 is below 100 nM in test [1], below 100 nM at MAT2A homodimer, 100 to 10000 nM with HCT116 MTAP+/+ and below 100 nM with HCT116 MTAP−/−.
As to `O=c1c(-c2ccc(OC(F)F)cc2)c2nc(NC3CC3)ncc2cn1-c1ccc2ncccc2c1` [Example 179, 2-(cyclopropylamino)-8-(4-(difluoromethoxy)phenyl)-6-(quinolin-6-yl)pyrido[4,3-d]pyrimidin-7(6)-one], the IC50 is 100 to 1000 nM in test [1], below 100 nM on MAT2A homodimer, above 10000 nM with HCT116 MTAP+/+ and 100 to 10000 nM in the test with HCT116 MTAP−/−.
Regarding `CCOc1ccc2cn(-c3ccc4nn(C)cc4c3)c(=O)c(-c3ccc(OC(F)F)cc3)c2n1` [Example 251, 8-(4-(difluoromethoxy)phenyl)-2-ethoxy-6-(2-methyl-2H-indazol-5-yl)-1,6-naphthyridin-7(6H)-one], the IC50 in test [1] was below 100 nM; on MAT2A homodimer, below 100 nM; in the test on HCT116 MTAP+/+ it was 100 to 10000 nM; with HCT116 MTAP−/−, below 100 nM.
